From patent US9358300B2, “Transfection reagents” (LIFE TECHNOLOGIES CORPORATION, priority 1998, dated 2016)

System: Primary, passaged, normal human fibroblasts (NHFs)
Experiment: Transfection of normal human fibroblasts with pCMV SPORT-β-gal DNA, β-gal activity
Format: cell-based
Settings: 40 ng pCMV SPORT-β-gal DNA and 0.1 or 0.2 μl lipid per well, ND = no detectable activity
Procedure: The cationic lipid reagents and DNA were diluted separately into 25µl aliquots of serum-free DMEM, containing 1% NEAA. For LIPOFECTAMINE® PLUS, 7 14 μl of PLUS reagent was added to the DNA, mixed, and incubated for 15 minutes at room temperature. The diluted DNA was combined with the diluted lipid and incubated at room temperature for at least 15 minutes to allow the DNA and the lipid to form complexes. Following this incubation the complexes were added directly into the culture medium dropwise and mixed by rocking the culture plate back and forth. The cells were further incubated at 37° C. for a total of 24 hours to allow expression of the lacZ transgene encoded by the reporter plasmid, pCMV SPORT-β-gal. At 24 hours post-transfection, the growth medium and transfection complexes were removed from the wells, and the cells in each well were rinsed briefly with 1 ml of D-PBS (Dulbecco's PBS, Life Technologies, Rockville, Md.). The cells in each well were lysed by the addition of 0.15 to 2.0 ml of […]. The plates were frozen at −80° C. for a minimum of 2 hours, and thawed at room temperature or 37° C. The thawed cell lysates were cleared by centrifugation and the supernatants were assayed for β-gal activity using the enzymatic substrate ONPG. The concentration of total protein in cell lysates was also determined using a Bradford assay (Bio-Rad Laboratories, Hercules Calif.). β-gal activity in transfected cell extracts was calculated against a standard curve and expressed as ng β-gal per surface area of tissue culture plate (ng/cm2) to reflect activity per transfection, or as ng β-gal per μg of total protein (ng/μg) to reflect specific activity.
Primary, passaged, normal human fibroblasts (NHFs) were plated in 96-well plates at a density of 1.6×104 cells per well and transfected the following day. Cells in each well were transfected with 40 ng pCMV SPORT-β-gal DNA and 0.1 or 0.2 μl lipid.
The DNA and lipid were diluted separately into 10 μl of DMEM. The DNA was either used alone or pre-mixed with PLUS, insulin, transferrin, or an integrin-targeting peptide prior to complexing with the lipid. After 15 minutes of complexing, the DNA-lipid was added to cells. Cells were assayed for p-gal activity as described above.

N^1,N^4-dioleyl-N^1,N^4-di-[2-hydroxy-3-(N-spermine carboxamido)-aminopropyl]-diaminobutane [Compound of Formula VII]
ACTIVITY (β-gal), DNA and PLUS (DNA pre-mixed with PLUS Reagent): 637.9 ng/βgal/cm^2
ACTIVITY (β-gal), DNA and INSULIN (DNA pre-mixed with insulin): 195.7 ng/βgal/cm^2
ACTIVITY (β-gal), DNA and INTEGRIN-TARGETING PRPTIDE (DNA pre-mixed with integrin-targeting peptide): 587.9 ng/βgal/cm^2
ACTIVITY (β-gal), DNA and TRANSFERRIN (DNA pre-mixed with transferrin): 21.7 ng/βgal/cm^2
ACTIVITY (β-gal), DNA (DNA used alone): 29.4 ng/βgal/cm^2
